# Source: patent US20240182460A1, “ALLOSTERIC CHROMENONE INHIBITORS OF PHOSPHOINOSITIDE 3-KINASE (PI3K) FOR THE TREATMENT OF DISEASE” (PETRA PHARMA CORPORATION, priority 2022, published 2024)
# How the values were obtained:
# PI3Kα E545K = PI3Kα E545K (Homo sapiens, UniProt P42336, E545K); experiment: PI3Kα E545K mutant in vitro cell based assay, MDA-MB-361 cells; design: MDA-MB-361 (ATCC-HTB-27) cell line (PI3Kα E545K); host or cells: MDA-MB-361; settings: MDA-MB-361 cell line, 0% FBS, no insulin, 3 hours treatment
# Chain of PI3Kα E545K (P42336 whole entry E545K): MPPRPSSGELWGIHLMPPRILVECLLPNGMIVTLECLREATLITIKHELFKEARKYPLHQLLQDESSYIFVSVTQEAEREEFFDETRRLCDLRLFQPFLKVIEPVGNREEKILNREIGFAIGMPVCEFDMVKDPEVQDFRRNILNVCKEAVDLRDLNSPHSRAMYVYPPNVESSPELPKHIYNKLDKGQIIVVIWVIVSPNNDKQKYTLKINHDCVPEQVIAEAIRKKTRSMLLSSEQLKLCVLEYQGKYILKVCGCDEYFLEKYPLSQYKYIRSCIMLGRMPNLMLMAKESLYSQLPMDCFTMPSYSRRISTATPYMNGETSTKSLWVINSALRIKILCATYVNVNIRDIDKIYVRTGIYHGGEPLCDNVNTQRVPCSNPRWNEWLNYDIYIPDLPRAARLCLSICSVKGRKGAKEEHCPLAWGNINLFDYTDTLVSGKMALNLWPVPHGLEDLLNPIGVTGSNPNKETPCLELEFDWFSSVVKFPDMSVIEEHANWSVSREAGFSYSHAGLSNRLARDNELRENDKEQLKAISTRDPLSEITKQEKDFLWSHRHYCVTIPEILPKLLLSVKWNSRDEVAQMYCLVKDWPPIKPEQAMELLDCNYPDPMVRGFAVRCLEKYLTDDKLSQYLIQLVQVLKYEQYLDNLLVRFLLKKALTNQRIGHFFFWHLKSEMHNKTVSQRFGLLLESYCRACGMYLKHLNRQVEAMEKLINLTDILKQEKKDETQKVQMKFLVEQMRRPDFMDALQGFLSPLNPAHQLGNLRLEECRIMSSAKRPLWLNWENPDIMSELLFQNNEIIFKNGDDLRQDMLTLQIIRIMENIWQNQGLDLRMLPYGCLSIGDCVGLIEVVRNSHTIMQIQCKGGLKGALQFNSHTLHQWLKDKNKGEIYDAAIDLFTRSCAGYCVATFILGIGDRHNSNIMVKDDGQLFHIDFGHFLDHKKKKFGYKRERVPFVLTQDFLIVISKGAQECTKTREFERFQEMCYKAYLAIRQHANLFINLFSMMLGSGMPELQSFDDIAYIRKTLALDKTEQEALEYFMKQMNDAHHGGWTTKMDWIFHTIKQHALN
# Chain of PI3Kα E545K (P27986 whole entry partner): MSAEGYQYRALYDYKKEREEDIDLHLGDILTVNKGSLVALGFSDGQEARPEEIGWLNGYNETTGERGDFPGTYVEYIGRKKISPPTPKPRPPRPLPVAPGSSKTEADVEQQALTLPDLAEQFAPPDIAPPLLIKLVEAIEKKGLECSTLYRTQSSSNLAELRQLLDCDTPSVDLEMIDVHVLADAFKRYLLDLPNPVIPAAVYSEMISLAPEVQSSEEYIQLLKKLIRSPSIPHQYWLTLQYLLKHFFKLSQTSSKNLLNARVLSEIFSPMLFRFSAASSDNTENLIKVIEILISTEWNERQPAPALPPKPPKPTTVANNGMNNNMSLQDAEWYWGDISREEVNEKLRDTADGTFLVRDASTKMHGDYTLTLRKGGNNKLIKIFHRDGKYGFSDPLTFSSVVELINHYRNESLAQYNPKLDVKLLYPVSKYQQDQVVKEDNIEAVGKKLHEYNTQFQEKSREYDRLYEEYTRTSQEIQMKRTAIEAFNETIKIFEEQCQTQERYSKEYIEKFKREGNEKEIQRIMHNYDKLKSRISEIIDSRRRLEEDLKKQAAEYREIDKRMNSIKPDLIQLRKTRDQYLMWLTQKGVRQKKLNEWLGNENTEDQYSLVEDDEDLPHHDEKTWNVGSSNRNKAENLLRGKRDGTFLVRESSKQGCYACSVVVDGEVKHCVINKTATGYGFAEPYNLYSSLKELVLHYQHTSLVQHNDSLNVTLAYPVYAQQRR
# In short: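 MDA-MB-361 cells (PI3Kα E545K) seeded in serum-free MEM assay medium without insulin, attached overnight, then treated 3 h with compound (10-point 1:3 series, 0.3% DMSO). AlphaLISA SureFire readout of lysates. IC50 by 4-parameter fit, normalized to DMSO (max) and 1 μM GDC-0032 (min).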
# PI3Kα H1047R = biological target: T1, PI3Kα H1047R (Homo sapiens, UniProt P42336, H1047R); experiment: PI3Kα H1047R mutant in vitro cell based assay, MDA-MB-453 cells (AlphaLisa SureFire); settings: MDA-MB-453 cell line, 0% FBS, 3 hours treatment
# T1 construct: The MDA-MB-453 (ATCC-HTB-131) cell line (PI3Kα H1047R); host or cells: MDA-MB-453
# T1 sequence (P42336 whole entry H1047R): as the sequence (P42336 whole entry E545K) above, with K545E, H1047R counted along it
# T1 sequence (P27986 whole entry partner): as the sequence (P27986 whole entry partner) above
# Excerpt: PI3K-Alpha Kinase (PI3Kα) Activity: Wild-Type PI3Kα, H1047R Mutant PI3Kα, and E545K Mutant PI3Kα In Vitro Cell Based Assays and Determination of IC50 Values for Inhibitors
# The MDA-MB-453 (ATCC-HTB-131) cell line (PI3Kα H1047R) and MCF-7 (ATCC-HTB-22) cell line (PI3Kα E545K), MDA-MB-361 (ATCC-HTB-27) cell line (PI3Kα E545K), and SKBR3 (ATCC-HTB-30) cell line (wild type PI3Kα) were obtained from the American Type Culture Collection (Manassas, VA). MDA-MB-453 cells were maintained in Dulbecco's Modified Eagle Media (DMEM, Gibco 12430) supplemented with 10% Fetal Bovine Serum, heat inactivated (FBS HI, Gibco 10082), 1× non-essential amino acids (NEAA, Gibco 11140), 1 mM sodium pyruvate (Gibco 11360) and 1× Anti-Anti (Gibco 15240). MCF-7 cells were maintained in Minimum Essential Media (MEM) (Gibco 11095) supplemented with 10% Fetal Bovine Serum, heat inactivated (FBS HI, Gibco 10082), 1× non-essential amino acids (NEAA, Gibco 11140), 1 mM sodium pyruvate (Gibco 11360), 1× Anti-Anti (Gibco 15240) and 10 μg/mL human insulin (Sigma I 9278). MDA-MB-361 cells were maintained in Dulbecco's Modified Eagle Media (DMEM, Gibco 12430) supplemented with 20% Fetal Bovine Serum, heat inactivated (FBS HI, Gibco 10082), 1× non-essential amino acids (NEAA, Gibco 11140), 1 mM sodium pyruvate (Gibco 11360) and 1× Anti-Anti (Gibco 15240). SKBR3 cells were maintained in McCoy's 5A (Gibco 16600) supplemented with 10% Fetal Bovine Serum, heat inactivated (FBS HI, Gibco 10082), and 1× Anti-Anti (Gibco 15240). Cultures were maintained in a humidified incubator at 37° C. under 5% CO2/95% air.
# For compound testing in 0% FBS, MDA-MB-453, MCF-7 and SKBR3 cells were seeded at a density of 1.5×10^4, 1.0×10^4, and 1.0×10^4 cells, respectively, per well in white 384-well plates in 20 μl of Minimum Essential Media (MEM) assay media with 1×NEAA, 1 mM sodium pyruvate, and 1 μg/mL human insulin (Sigma 19278) (Assay Medium); while MDA-MB-361 cells were seeded at a density of 1.5×10^4 per well in white 384-well plates in 20 μl Assay Medium without insulin. After plating, cells were allowed to attach overnight. Compounds dissolved in 10 mM stock solutions in DMSO were serially diluted 1:3 in DMSO to generate a 10-point dilution series and plated using an acoustic liquid handler system (Echo 550 Series Liquid Handler, Labcyte). A 5× intermediate compound dilution plate in MEM with 1×NEAA and 1 mM sodium pyruvate (150 μM starting compound concentration in 1.5% DMSO) was then prepared. Five μl of the intermediate serially diluted compounds were added to the cell plate to final concentrations ranging from […] in 0.3% DMSO. 0.3% DMSO alone was used to establish the maximum (MAX) signal and GDC-0032 at a final concentration of 1 μM was used as a reference compound for the minimum (MIN) signal. After 3 hours treatment, the medium was removed, and the cells were lysed in 10 μL of 1× SureFire Lysis buffer with shaking for 10 minutes at room temperature. The Acceptor Mix (Reaction Buffer 1+Reaction Buffer 2+Activation Buffer+SureFire Ultra Acceptor Beads) was prepared by diluting Activation buffer 25-fold in combined Reaction Buffer 1 and Reaction Buffer 2.
# The Acceptor beads were diluted 50-fold in the combined Reaction Buffers. Five μL of Acceptor Mix was added to each well, the plate was sealed and covered with foil and incubated for 1 hour at room temperature. The Donor Mix (dilution buffer+SureFire Ultra Donor Beads) was prepared by diluting Donor Beads 50-fold in dilution buffer. Five μL of the Donor Mix was added to each well and the plate sealed and covered with foil and incubated for 1-2 hours at room temperature in the dark. The plates were read on a Neo2 plate reader instrument from Biotek using standard AlphaLisa settings.
# Compounds were tested in duplicate and the % inhibition at each compound concentration was used to generate two dose response curves. One IC50 was generated using average % inhibition at each compound concentration. […]
SMILES,IC50 (PI3Kα E545K) [nM],IC50 (PI3Kα H1047R) [nM]
"Cc1cc([C@@H](C)Oc2ccc(Cl)nc2C(N)=O)c2oc(-c3ccc4ncsc4c3)c(C)c(=O)c2c1 [Example 12B, 3-[(1R)-1-[2-(1,3-Benzothiazol-6-yl)-3,6-dimethyl-4-oxo-chromen-8-yl]ethoxy]-6-chloro-pyridine-2-carboxamide]",< 500,< 100
"Cc1cc([C@@H](C)Oc2ccc(Cl)nc2C(N)=O)c2oc(-c3cnn4c3OCC4)c(C)c(=O)c2c1 [Example 36C, 6-Chloro-3-[(1R)-1-[2-(2,3-dihydropyrazolo[5,1-b]oxazol-7-yl)-3,6-dimethyl-4-oxo-chromen-8-yl]ethoxy]pyridine-2-carboxamide]",< 500,< 100
"CONC(=O)c1c(O[C@H](C)c2cc(C)cc3c(=O)c(C)c(-c4ccc5nn(C)cc5c4)oc23)ccc(F)c1F [Example 37A, 6-[(1R)-1-[3,6-Dimethyl-2-(2-methylindazol-5-yl)-4-oxo-chromen-8-yl]ethoxy]-2,3-difluoro-N-methoxy-benzamide]",< 500,< 100
Cc1cc([C@@H](C)Oc2ccc(Cl)nc2C(N)=O)c2oc(-c3cc(F)c4nc(C)cn4c3)c(C)c(=O)c2c1 [Example 38C],< 500,< 100
"Cc1cc([C@@H](C)Oc2ccc(Cl)nc2C(N)=O)c2oc(-c3ccc4c(cnn4C)c3)c(C)c(=O)c2c1 [Example 40C, 6-Chloro-3-[(1R)-1-[3,6-dimethyl-2-(1-methylindazol-5-yl)-4-oxo-chromen-8-yl]ethoxy]pyridine-2-carboxamide]",< 500,< 100
"Cc1cc([C@@H](C)Oc2ccc(Cl)nc2-c2noc(=O)[nH]2)c2oc(-c3ccc4c(c3)OCCN4C)c(C)c(=O)c2c1 [Example 48A, 3-[6-Chloro-3-[(1R)-1-[3,6-dimethyl-2-(4-methyl-2,3-dihydro-1,4-benzoxazin-7-yl)-4-oxo-chromen-8-yl]ethoxy]-2-pyridyl]-4H-1,2,4-oxadiazol-5-one]",< 500,< 100
"Cc1cc([C@@H](C)Oc2ccc(Cl)nc2C(N)=O)c2oc(-c3ccc4nc(C)oc4c3)c(C)c(=O)c2c1 [Example 53C, 6-Chloro-3-[(1R)-1-[3,6-dimethyl-2-(2-methyl-1,3-benzoxazol-6-yl)-4-oxo-chromen-8-yl]ethoxy]pyridine-2-carboxamide]",< 500,< 100
"Cc1cc([C@@H](C)Oc2ccc(Cl)nc2C(N)=O)c2oc(-c3ccc4nc(C)cn4c3)c(C)c(=O)c2c1 [Example 57A, 6-Chloro-3-[(1R)-1-[3,6-dimethyl-2-(2-methylimidazo[1,2-a]pyridin-6-yl)-4-oxo-chromen-8-yl]ethoxy]pyridine-2-carboxamide]",< 500,< 100
"Cc1cc([C@@H](C)Oc2ccc(Cl)nc2S(N)(=O)=O)c2oc(-c3cnn(CCO)c3)c(C)c(=O)c2c1 [Example 61A, 6-Chloro-3-[(1R)-1-[2-[1-(2-hydroxyethyl)pyrazol-4-yl]-3,6-dimethyl-4-oxo-chromen-8-yl]ethoxy]pyridine-2-sulfonamide]",< 500,< 100
"Cc1cc([C@@H](C)Oc2ccc(Cl)nc2C(N)=O)c2oc(-c3cnc(C)s3)c(C)c(=O)c2c1 [Example 63C, 6-Chloro-3-[(1R)-1-[3,6-dimethyl-2-(2-methylthiazol-5-yl)-4-oxo-chromen-8-yl]ethoxy]pyridine-2-carboxamide]",< 500,< 100
"Cc1cc([C@@H](C)Oc2ccc(Cl)nc2C(N)=O)c2oc(-c3cnn4c3OCC4(C)C)c(C)c(=O)c2c1 [Example 65C, 6-Chloro-3-[(1R)-1-[2-(3,3-dimethyl-2H-pyrazolo[5,1-b]oxazol-7-yl)-3,6-dimethyl-4-oxo-chromen-8-yl]ethoxy]pyridine-2-carboxamide]",< 500,< 100
"Cc1cc([C@@H](C)Oc2ccc(Cl)nc2C(N)=O)c2oc(-c3ccc4nn(CF)cc4c3)c(C)c(=O)c2c1 [Example 66C, 6-Chloro-3-[(1R)-1-[2-[2-(fluoromethyl)indazol-5-yl]-3,6-dimethyl-4-oxo-chromen-8-yl]ethoxy]pyridine-2-carboxamide]",< 500,< 100
"CONC(=O)c1nc(Cl)ccc1O[C@H](C)c1cc(C)cc2c(=O)c(C)c(-c3ccc4nc(C)sc4c3)oc12 [Example 69C, 6-Chloro-3-[(1R)-1-[3,6-dimethyl-2-(2-methyl-1,3-benzothiazol-6-yl)-4-oxo-chromen-8-yl]ethoxy]-N-methoxy-pyridine-2-carboxamide]",< 500,< 100
"Cc1cc([C@@H](C)Oc2ccc(Cl)nc2S(N)(=O)=O)c2oc(-c3cnn4c3OCC4)c(C)c(=O)c2c1 [Example 85C, 6-Chloro-3-[(1R)-1-[2-(2,3-dihydropyrazolo[5,1-b]oxazol-7-yl)-3,6-dimethyl-4-oxo-chromen-8-yl]ethoxy]pyridine-2-sulfonamide]",< 500,< 100
"Cc1cc([C@@H](C)Oc2ccc(Cl)nc2S(N)(=O)=O)c2oc(-c3cnn(CCS(C)(=O)=O)c3)c(C)c(=O)c2c1 [Example 90C, 6-Chloro-3-[(1R)-1-[3,6-dimethyl-2-[1-(2-methylsulfonylethyl)pyrazol-4-yl]-4-oxo-chromen-8-yl]ethoxy]pyridine-2-sulfonamide]",< 500,< 100
"Cc1cc([C@@H](C)Oc2cccnc2S(N)(=O)=O)c2oc(-c3cnn4c3OCC4)c(C)c(=O)c2c1 [Example 95C, 3-[(1R)-1-[2-(2,3-Dihydropyrazolo[5,1-b]oxazol-7-yl)-3,6-dimethyl-4-oxo-chromen-8-yl]ethoxy]pyridine-2-sulfonamide]",–,< 100
"Cc1cc([C@@H](C)Oc2ccc(Cl)nc2C(N)=O)c2oc(-c3cnn4c3OCCC4)c(C)c(=O)c2c1 [Example 108A, 6-Chloro-3-[(1R)-1-[2-(6,7-dihydro-5H-pyrazolo[5,1-b][1,3]oxazin-3-yl)-3,6-dimethyl-4-oxo-chromen-8-yl]ethoxy]pyridine-2-carboxamide]",–,< 100
"Cc1cc([C@@H](C)Oc2ccc(Cl)nc2C(N)=O)c2oc(-c3cnn4c3CCC4)c(C)c(=O)c2c1 [Example 123A, 6-Chloro-3-[(1R)-1-[2-(5,6-dihydro-4H-pyrrolo[2,1-e]pyrazol-3-yl)-3,6-dimethyl-4-oxo-chromen-8-yl]ethoxy]pyridine-2-carboxamide]",< 500,< 100
